The source of these data is patent publication US7586022B2, “Transgenic non-human animal model of lung tumorigenesis” (Trustees of Dartmouth College, priority 2006, dated 2009).

SMILES strings stand for the structures. “Also recorded” adds a separate entry of the source.

The test system of assay [1] is exogenous cyclin E. As to the kind of experiment: exogenous cyclin E expression in retrovirally transduced BEAS-2B cells treated with agents. It is filed as cell-based, human. Particulars: treated for 24, 36 and 48 hours. Here is the method: To determine whether other agents could modulate the expression of cyclin E, […], N-(4-hydroxyphenyl)retinamide (4HPR or fenretinide), or other non-classical retinoids for 24, 36 and 48 hours.

In assay [2] the test system is BEAS-2B human bronchial epithelial cells. The conditions noted are these: cited from earlier work.

Consider `CC1(C)CC[C@]2(C(=O)O)CC[C@]3(C)[C@H](C(=O)C=C4[C@@]5(C)C=C(C#N)C(=O)C(C)(C)[C@@H]5CC[C@]43C)[C@@H]2C1` [CDDO, 2-cyano-3,12-dioxooleana-1,9-dien-28-oic acid], for which, in assay [1], the “exogenous cyclin E expression” value is recorded as “potently repress exogenous cyclin E expression; also recorded: most potently decreased exogenous cyclin E expression, as early as 24 hours after treatment”. With `CC1=C(/C=C/C(C)=C/C=C/C(C)=C/C(=O)O)C(C)(C)CCC1` [RA, All-trans-retinoic acid], the NNK-mediated transformation entry in assay [2] (BEAS-2B cells exposed to NNK) was “antagonizes NNK-mediated transformation by causing G1 arrest”. In assay [2] (RA treatment), the “cyclin E expression” value is “represses cyclin E expression via activation of a proteosomal degradation pathway”.
